Experimental data reported in patent US6017933A, “Mannich bases of conjugated styryl ketones” (University of Saskatchewan Technologies Inc., priority 1999, dated 2000).
≈ marks a conversion by molar mass, not a printed value. Entries after “also recorded” stand apart in the source; their conditions may differ. Where two headings read alike, the source gives them in different places.

Columns and labels:
[1] = system: P388 lymphocytic leukemia; settings: 20 mg/kg intraperitoneally for five days; cited from earlier work
[2] = system: Candida albicans; settings: C. albicans; cited from earlier work
[3] = system: ITZ-resistant Aspergillus fumigatus; assay: MIC and MLC, ITZ-resistant Aspergillus fumigatus, broth macrodilution; settings: 48 h
[4] = system: AMB-resistant Aspergillus fumigatus; assay: MIC and MLC, AMB-resistant Aspergillus fumigatus, broth macrodilution; settings: 48 h
[5] = system: Aspergillus fumigatus conidia; assay: Kill-curve experiment, Aspergillus fumigatus conidia; assay type: cell-based; settings: Aspergillus fumigatus; 5 μm AMB or 5 μm ITZ, within 24 hr
Description: Kill-Curve Experiment: 5 ml conidial suspension each of the AMB-, and ITZ-susceptible (W73355) and the resistant (AB16.4 and ITZ70) isolates prepared in PYG broth (1×10^6 conidia/ml) was incubated at 35° C. in the presence of 5 μm of AMB or 5 μm ITZ or 50 μm Compound 9b. At various time intervals, 0.1 ml aliquots of the conidial suspension were removed, diluted appropriately to obtain 10^2 to 10^4 fold dilution, and 0.1 ml aliquots were spread in duplicate on PYG agar plates. […] Identical treatment of the conidial suspension in the absence of the drug was used as the growth control.

[6] = system: Aspergillus fumigatus; assay: MIC and MLC, Aspergillus fumigatus, broth macrodilution; settings: Aspergillus fumigatus, 48 h
[7] = system: Aspergillus fumigatus; assay: Murine pulmonary aspergillosis model; assay type: in vivo, Aspergillus fumigatus in DBA/2J female mice; settings: 2 mg/kg/day
Description: In vivo susceptibility studies: DBA/2J female mice (Jackson Laboratories) weighing 20-23 grams (≈6 weeks old) were used. The mice were immunosuppressed by 3 consecutive subcutaneous injections (0.5 ml each) of cortisone acetate (250 mg/kg; Sigma Chemical Company) in sterile distilled water containing 0.1% Tween 80. The immunosuppressed mice were anesthetized by exposing to ether in a desiccator for 45±5 seconds and infected with 20 μl inoculum containing 1×10^6 conidia delivered to the nares of the animals as a single droplet from a micropipet. Compound 9b and AMB were dissolved in dimethyl sulfoxide (DMSO) and administered 24 hr post infection by intraperitoneal injection in 0.2 ml PBS per dose. […] The efficacy of chemotherapy was assessed by determining percent survival and the fungal load (CFU/lungs) of infected animals as determined by semiquantitative organ culture.

[8] = system: P388 lymphocytic leukemia; assay: Murine P388 lymphocytic leukemia in vivo screen
Description: In order to evaluate whether these promising results could be translated into in vivo activity, two representative compounds 9d and 10a were chosen. […] These two compounds were examined in the murine P388 screen and against certain human tumors in athymic mice.
(§1) The compounds were examined by the Developmental Therapeutics Program, National Cancer Institute, U.S.A. The murine P388 lymphocytic leukemia assay was conducted by a reported known method and the maximum ILS figures for 9d and 10a were 5 and 20% respectively using doses of 54 and 6.7 mg/kg respectively. An increase of 20% or more in the life spans is considered to be statistically significant. A reference drug 5-fluorouracil has an ILS of >35 using a dose of 20 mg/kg when given intraperitoneally for five days. Passage of human tumors in athymic mice was undertaken by a known method. No definitions of activity are available but as a general rule compounds causing a 60% reduction in tumor weights in one of these screens would be evaluated further.

[9] = system: COLO 205; assay: COLO 205 human colon tumor xenograft in athymic mice; assay type: in vivo; settings: COLO 205; 16.8 mg/kg
Description: as §1

[10] = system: human tumors; assay: Cytotoxicity, human tumor cell line panel (approximately 55 lines); settings: for IC50: read-out: human tumors IC50, mean graph midpoint, approximately 55 cell lines, hydrobromide salts used for 4a, 11a-e
[11] = system: P388 cells; assay: Cytotoxicity, murine P388 leukemic cells (P388 D1); settings: for IC50: read-out: P388 cells IC50; for cytotoxicity compared with compound 9d: Table 3 screens
[12] = system: CAKI-1; assay: CAKI-1 human renal tumor xenograft in athymic mice; assay type: in vivo; settings: 16.8 mg/kg
Description: as §1

[13] = system: KM12; assay: KM12 human colon tumor xenograft in athymic mice; assay type: in vivo
Description: as §1

[14] = system: human tumors
[15] = system: CEM cells; assay: Cytotoxicity, CEM human T-lymphocytes; settings: for IC50: Homo sapiens, CCRF-CEM, read-out: CEM cells IC50; for TIL1210 (CEM cells): IC50 T-lymphocytes (CEM)/IC50 L1210; for TIP388 (CEM cells): IC50 T-lymphocytes (CEM)/IC50 P388; for TIht (CEM cells): IC50 T-lymphocytes (CEM)/IC50 human tumors
[16] = system: L1210 cells; assay: Cytotoxicity, murine L1210 leukemic cells; assay type: cell-based; settings: Mus musculus, mean
[17] = system: Molt 4/C8 cells; assay: Cytotoxicity, Molt 4/C8 human T-lymphocytes; settings: for TIL1210 (Molt 4/C8 cells): IC50 T-lymphocytes (Molt 4/C8)/IC50 L1210; for TIP388 (Molt 4/C8 cells): IC50 T-lymphocytes (Molt 4/C8)/IC50 P388; for TIht (Molt 4/C8 cells): IC50 T-lymphocytes (Molt 4/C8)/IC50 human tumors; for IC50: read-out: Molt 4/C8 cells IC50
[18] = system: COLO 205; settings: in vivo; cited from earlier work
[19] = system: SW-620; settings: in vivo; cited from earlier work
[20] = system: CAKI-1; settings: in vivo; cited from earlier work
[21] = system: LOX IMVI; settings: in vivo; cited from earlier work
[22] = system: NCI-H522; settings: in vivo; cited from earlier work
[23] = system: human Jurkat T cells; assay: Growth inhibition of Jurkat T cells, trypan blue exclusion test; assay type: cell-based; settings: 48 h, read-out: growth of Jurkat T cells inhibited by 50% (IC50)
Description: All cell cultures used were maintained in RPMI 1640 medium, pH 7.4 supplanted with 10% fetal bovine serum and 50 μg/ml of gentamycin in 25 ml culture flasks at 37° C. in a humidified gas mixture of 5% carbon dioxide balanced with air and were passaged three times a week.
Cell viability was determined by the trypan blue exclusion test according to a literature procedure (Duke and Cohen, 1992). […] A flask containing ~10^6 cells/ml and 8 or […] of DMSO was used as the control. […] After 48 hours, cells were counted using a haemocytometer. The percentage of growth inhibition was calculated as follows: (C-T/C)×100 where C is the mean cell number in the control and T is the mean cell number in each treatment. […] All experiments were performed in triplicate.

[24] = system: human Jurkat T cells; assay: DNA fragmentation by agarose gel electrophoresis; assay type: cell-based; settings: Compound 9d 6 and 10 μM; melphalan 10 μM
[25] = system: human Jurkat T cells; assay: Apoptosis, fluorescence microscopy with acridine orange and ethidium bromide

SMILES: O=c1[nH]cc(F)c(=O)[nH]1 [5-fluorouracil]
- ILS, murine P388 (reference drug) [1]: > 35

SMILES: C[C@@H]1[C@H](O)[C@@H](C)/C=C/C=C/C=C/C=C/C=C/C=C/C=C/[C@H](O[C@@H]2O[C@H](C)[C@@H](O)[C@H](N)[C@@H]2O)C[C@@H]2O[C@](O)(C[C@@H](O)C[C@@H](O)[C@H](O)CC[C@@H](O)C[C@@H](O)CC(=O)O[C@H]1C)C[C@H](O)[C@H]2C(=O)O [Amphotericin B]
- mean MIC [2]: ~0.6 μm
- MIC ([3]; read-out: MIC Mean ± SD): 0.7 ± 0.39 µM (≈ 0.647 µg/mL)
- MIC ([3]; read-out: MIC Range): 0.27 to 1.11 µM (≈ 0.25 to 1.03 µg/mL)
- MIC ([4]; read-out: MIC Mean ± SD): 6.64 ± 3.47 µM (≈ 6.14 µg/mL)
- MIC ([4]; read-out: MIC Range): 4.42 to 17.7 µM (≈ 4.08 to 16.4 µg/mL)
- killing at 5 µM [5]: ≥ 99%
- MIC ([6]; read-out: MIC Mean ± SD): 1.32 ± 0.63 µM (≈ 1.22 µg/mL)
- MIC ([6]; read-out: MIC Range): 0.55 to 2.22 µM (≈ 0.508 to 2.05 µg/mL)
- reduction of CFU/lung [7]: ≈ 66%

SMILES: CC[N+]1(C)CCC(O)(/C=C/c2ccccc2)C(C(=O)/C=C/c2ccccc2)C1 (stereo not shown) [Compound 10a]
- maximum ILS / increase in life span, murine P388 ([8]; 6.7 mg/kg): 20%
- activity in the murine P388 screen ([8]; in words): marginal potency
- % ILS [9]: 14%
- percent reduction in median tumor weight [9]: 20%
- Selective toxicity towards leukemia ([10]; human tumor screen): Selective toxicity towards leukemia was observed; also recorded: preferential cytotoxicity to colon and leukemic cells respectively
- IC50 [10]: 8.31 µM
- IC50 [11]: 2270 nM
- % ILS [12]: 6%
- % T/C [12]: 43%
- % T/C ([13]; 16.8 mg/kg): 45%
- % ILS ([13]; 25 mg/kg): 5%

SMILES: CC[N+]1(C)CCC(O)(/C=C/c2ccc(Cl)c(Cl)c2)C(C(=O)/C=C/c2ccc(Cl)c(Cl)c2)C1 (stereo not shown) [Compound 10c]
- activity relative to compound 12c, human tumors [14]: 4.36 times
- IC50 [15]: 16.5 µM
- TIL1210 (CEM cells) [15]: 0.77
- TIP388 (CEM cells) [15]: 25.78
- TIht (CEM cells) [15]: 7.53
- IC50 [16]: 21.4 µM
- IC50 [10]: 2.19 µM
- IC50 [11]: 640 nM
- TIL1210 (Molt 4/C8 cells) [17]: 1.12
- TIP388 (Molt 4/C8 cells) [17]: 37.56
- TIht (Molt 4/C8 cells) [17]: 10.98
- IC50 [17]: 24 µM

SMILES: CCN1CCC(O)(/C=C/c2cccc(C)c2)C(C(=O)/C=C/c2cccc(C)c2)C1 (stereo not shown) [Compound 13a]
- IC50 [15]: 9.23 µM
- TIL1210 (CEM cells) [15]: 0.73
- TIP388 (CEM cells) [15]: 4.89
- TIht (CEM cells) [15]: 3.75
- IC50 [16]: 12.6 µM
- selective/preferential cytotoxicity towards colon cancer cells ([10]; human tumor screen): neither 13a,b displayed selective toxicity for colon cancers
- IC50 [10]: 2.46 µM
- cytotoxicity compared with compound 9d [11]: comparable cytotoxicity to compound 9d
- IC50 [11]: 1890 nM
- TI (murine leukemia cells vs T-lymphocytes; printed TIht) compared with compound d [17]: lower
- TIht compared with compound 9d [17]: greater than compound 9d
- TIL1210 (Molt 4/C8 cells) [17]: 1.14
- TIP388 (Molt 4/C8 cells) [17]: 7.57
- TIht (Molt 4/C8 cells) [17]: 5.81
- IC50 [17]: 14.3 ± 9.1 µM

SMILES: CCN1CCC(O)(/C=C/c2ccc(C)c(C)c2)C(C(=O)/C=C/c2ccc(C)c(C)c2)C1 (stereo not shown) [Compound 13b]
- IC50 [15]: 30.8 µM
- TIL1210 (CEM cells) [15]: 1.47
- TIP388 (CEM cells) [15]: 11.89
- IC50 [16]: 20.9 µM
- selective/preferential cytotoxicity towards colon cancer cells ([10]; human tumor screen): neither 13a,b displayed selective toxicity for colon cancers
- cytotoxicity compared with compound 9d [11]: comparable cytotoxicity to compound 9d
- IC50 [11]: 2590 nM
- TI (murine leukemia cells vs T-lymphocytes; printed TIht) compared with compound d [17]: lower
- TIht compared with compound 9d [17]: greater than compound 9d
- TIL1210 (Molt 4/C8 cells) [17]: 0.67
- TIP388 (Molt 4/C8 cells) [17]: 5.41
- IC50 [17]: 14 ± 8.6 µM

SMILES: CCC(C)n1ncn(-c2ccc(N3CCN(c4ccc(OCC5COC(Cn6cncn6)(c6ccc(Cl)cc6Cl)O5)cc4)CC3)cc2)c1=O (stereo not shown) [Itraconazole]
- MIC ([3]; read-out: MIC Mean ± SD): 17.2 ± 5.83 µM (≈ 12.2 µg/mL)
- MIC ([3]; read-out: MIC Range): 5.19 to 20.8 µM (≈ 3.66 to 14.7 µg/mL)
- MIC ([4]; read-out: MIC Mean ± SD): 0.82 ± 0.35 µM (≈ 0.579 µg/mL)
- MIC ([4]; read-out: MIC Range): 0.32 to 1.29 µM (≈ 0.226 to 0.91 µg/mL)
- killing at 5 µM [5]: 85%
- MIC ([6]; read-out: MIC Mean ± SD): 0.53 ± 0.16 µM (≈ 0.374 µg/mL)
- MIC ([6]; read-out: MIC Range): 0.18 to 0.72 µM (≈ 0.127 to 0.508 µg/mL)

SMILES: O=P1(N(CCCl)CCCl)NCCCO1 (stereo not shown) [cyclophosphamide]
- activity towards COLO 205 xenograft [18]: inactive
- activity towards SW-620 xenograft [19]: inactive
- reduction of growth of CAKI-1 tumor [20]: 60-100%
- reduction of growth of LOX IMVI tumor [21]: 100-150%
- activity towards NCI-H522 xenograft [22]: inactive

SMILES: OC(Cn1cncn1)(Cn1cncn1)c1ccc(F)cc1F [fluconazole]
- mean MIC [2]: approximately 0.8 μm

SMILES: N[C@@H](Cc1ccc(N(CCCl)CCCl)cc1)C(=O)O [melphalan, reference compound]
- IC50 [23]: 1160 nM
- DNA ladder / DNA fragmentation [24]: A faint DNA ladder could be seen
- time after which apoptotic effects were detectable [25]: 3 h
- percentage of apoptotic cells ([25]; 10 μM, 17 hours, control 4.4%): 24%
- death of treated cells ([25]; 48 hours): all the treated cells had died
- TIL1210 (CEM cells) [15]: 1.16
- TIP388 (CEM cells) [15]: 11.23
- TIht (CEM cells) [15]: 0.09
- IC50 [10]: 26.3 µM
